Experimental data as given in paper PMC3608401 (FEBS letters, 2013).

T1: Clostridium phytofermentans Cphy3396 (clade 3) (Lachnoclostridium phytofermentans, UniProt A9KTB9)
T1 sequence (A9KTB9 1-466): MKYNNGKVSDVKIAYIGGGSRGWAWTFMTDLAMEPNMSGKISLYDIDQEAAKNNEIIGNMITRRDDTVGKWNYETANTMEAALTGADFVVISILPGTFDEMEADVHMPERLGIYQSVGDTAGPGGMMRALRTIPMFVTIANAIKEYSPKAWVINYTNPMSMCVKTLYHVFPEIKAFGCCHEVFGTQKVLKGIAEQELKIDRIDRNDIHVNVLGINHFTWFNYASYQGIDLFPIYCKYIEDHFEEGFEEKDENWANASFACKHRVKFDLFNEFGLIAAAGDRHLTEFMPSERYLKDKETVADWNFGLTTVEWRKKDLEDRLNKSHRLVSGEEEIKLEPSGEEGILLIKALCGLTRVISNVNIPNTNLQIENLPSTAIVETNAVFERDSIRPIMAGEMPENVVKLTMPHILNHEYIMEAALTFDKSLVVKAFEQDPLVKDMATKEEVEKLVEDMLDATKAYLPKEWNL

T2: protein from Thermoanaerobacter italicus (clade 1) (Thermoanaerobacter thermocopriae, UniProt D3T426)
T2 sequence (D3T426 1-453): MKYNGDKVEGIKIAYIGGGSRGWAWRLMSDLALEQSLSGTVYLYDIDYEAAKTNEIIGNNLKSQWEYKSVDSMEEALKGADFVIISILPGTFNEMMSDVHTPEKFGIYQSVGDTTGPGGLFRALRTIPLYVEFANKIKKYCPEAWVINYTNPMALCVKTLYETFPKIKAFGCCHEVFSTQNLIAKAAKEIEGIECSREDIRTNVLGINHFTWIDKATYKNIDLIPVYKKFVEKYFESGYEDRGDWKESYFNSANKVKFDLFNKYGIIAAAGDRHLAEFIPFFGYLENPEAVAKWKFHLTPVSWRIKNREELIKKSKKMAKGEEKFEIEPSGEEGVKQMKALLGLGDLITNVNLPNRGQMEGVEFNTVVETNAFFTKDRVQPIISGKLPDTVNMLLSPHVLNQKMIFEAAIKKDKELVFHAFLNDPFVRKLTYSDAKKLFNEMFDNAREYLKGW

B1: LplD (LplDhis6) (Bacillus subtilis subsp. subtilis str. 168) (protein)
chain: MFHISTLDQIKIAYIGGGSQGWARSLMSDLSIDERMSGTVALYDLDFEAAQKNEVIGNHSGNGRWRYEAVSTLKKALSAADIVIISILPGSLDDMEVDVHLPERCGIYQSVGDTVGPGGIIRGLRAVPIFAEIARAIRDYAPESWVINYTNPMSVCTRVLYKVFPGIKAIGCCHEVFGTQKLLAEMVTERLGIEVPRREDIRVNVLGINHFTWITKASYRHIDLLPIFREFSAHYGESGYELEGECWRDSVFCSAHRVAFDLFETYGAIPAAGDRHLAEFLPGPYLKQPEVWKFHLTPISFRKQDRAEKRQETERLIVQQRGVAEKASGEEGVNIIAALLGLGELVTNVNMPNQGQVLNLPIQAIVETNAFITRNRVQPILSGALPKGVEMLAARHISNQEAVADAGLTKDTGLAFQAFLNDPLVQIDRSDAEQLFNDMLQCIMQS

How the values were obtained:
[1] = target: T1, Clostridium phytofermentans Cphy3396 (clade 3); assay: colorimetric assay of α-galacturonidase activity; type: biochemical; settings: cofactors NAD+, Mn2+, DTT as for GH4 enzymes
[2] = target: T2, protein from Thermoanaerobacter italicus (clade 1); assay: colorimetric assay of α-galacturonidase activity; type: biochemical; settings: cofactors NAD+, Mn2+, DTT as for GH4 enzymes
[3] = substrate: O=C(O)[C@H]1O[C@H](Oc2ccc([N+](=O)[O-])cc2)[C@H](O)[C@@H](O)[C@H]1O; assay: discontinuous colorimetric assay, p-nitrophenol release; type: biochemical, Bacillus subtilis; settings: 25 mM Tris-HCl pH 7.5, 0.1 mM NAD+, 1 mM MnCl2, 5 mM DTT, ~35-38 °C

Molecule	colorimetric assay of α-galacturonidase activity [1]	colorimetric assay of α-galacturonidase activity [2]	Km [3] [µM]	kcat [3] [s⁻¹]
O=C(O)[C@H]1O[C@H](Oc2ccc([N+](=O)[O-])cc2)[C@H](O)[C@@H](O)[C@H]1O [pNPαGalUA]	pNPαGalUA served as substrate in all assays of protein activity	pNPαGalUA served as substrate in all assays of protein activity		
B1			0.62 ± 0.11	3.6
